Measurements reported in US9446039B2, “Aminoheteroaryl compounds as MTH1 inhibitors” (CEMM—FORSCHUNGSZENTRUM FÜR MOLEKULARE MEDIZIN GMBH, priority 2012, dated 2016).

Key:
Format in all cases: binding
[1] = target: SW480 colon carcinoma cells lysate proteins (Homo sapiens, UniProt P17980); conditions: PreyGene PSMC3
[2] = target: T1, SW480 colon carcinoma cells lysate proteins (Homo sapiens, UniProt P26639); conditions: PreyGene TARS
T1 sequence (P26639 1-723): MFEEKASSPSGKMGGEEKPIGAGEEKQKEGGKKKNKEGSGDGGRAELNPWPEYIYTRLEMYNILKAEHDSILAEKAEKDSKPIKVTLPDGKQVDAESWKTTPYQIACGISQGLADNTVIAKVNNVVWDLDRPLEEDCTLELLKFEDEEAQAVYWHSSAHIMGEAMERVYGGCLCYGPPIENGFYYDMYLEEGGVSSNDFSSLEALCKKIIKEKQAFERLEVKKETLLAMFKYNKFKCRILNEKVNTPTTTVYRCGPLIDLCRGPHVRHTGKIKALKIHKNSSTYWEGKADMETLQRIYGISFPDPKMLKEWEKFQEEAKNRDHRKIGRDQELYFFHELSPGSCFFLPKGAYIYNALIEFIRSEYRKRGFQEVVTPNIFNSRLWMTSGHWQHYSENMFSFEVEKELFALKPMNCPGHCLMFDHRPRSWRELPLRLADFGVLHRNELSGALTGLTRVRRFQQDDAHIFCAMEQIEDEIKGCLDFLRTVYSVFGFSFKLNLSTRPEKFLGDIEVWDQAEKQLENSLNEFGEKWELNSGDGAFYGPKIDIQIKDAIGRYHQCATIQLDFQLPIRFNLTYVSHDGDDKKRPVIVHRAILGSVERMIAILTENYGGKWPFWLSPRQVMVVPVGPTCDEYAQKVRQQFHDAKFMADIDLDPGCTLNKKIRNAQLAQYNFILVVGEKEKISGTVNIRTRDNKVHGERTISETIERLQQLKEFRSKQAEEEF

[3] = target: SW480 colon carcinoma cells lysate proteins (Homo sapiens, UniProt P37802); conditions: PreyGene TAGLN2
SW480 colon carcinoma cells lysate proteins (Homo sapiens, UniProt P37802), sequence (P37802 whole entry): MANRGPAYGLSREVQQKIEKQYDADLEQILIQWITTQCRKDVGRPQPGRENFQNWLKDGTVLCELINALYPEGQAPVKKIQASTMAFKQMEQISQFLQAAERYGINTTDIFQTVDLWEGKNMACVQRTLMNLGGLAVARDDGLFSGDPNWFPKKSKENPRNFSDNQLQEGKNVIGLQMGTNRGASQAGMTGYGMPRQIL

[4] = target: T2, SW480 colon carcinoma cells lysate proteins (Homo sapiens, UniProt P41250); conditions: PreyGene GARS
T2 sequence (P41250 37-739): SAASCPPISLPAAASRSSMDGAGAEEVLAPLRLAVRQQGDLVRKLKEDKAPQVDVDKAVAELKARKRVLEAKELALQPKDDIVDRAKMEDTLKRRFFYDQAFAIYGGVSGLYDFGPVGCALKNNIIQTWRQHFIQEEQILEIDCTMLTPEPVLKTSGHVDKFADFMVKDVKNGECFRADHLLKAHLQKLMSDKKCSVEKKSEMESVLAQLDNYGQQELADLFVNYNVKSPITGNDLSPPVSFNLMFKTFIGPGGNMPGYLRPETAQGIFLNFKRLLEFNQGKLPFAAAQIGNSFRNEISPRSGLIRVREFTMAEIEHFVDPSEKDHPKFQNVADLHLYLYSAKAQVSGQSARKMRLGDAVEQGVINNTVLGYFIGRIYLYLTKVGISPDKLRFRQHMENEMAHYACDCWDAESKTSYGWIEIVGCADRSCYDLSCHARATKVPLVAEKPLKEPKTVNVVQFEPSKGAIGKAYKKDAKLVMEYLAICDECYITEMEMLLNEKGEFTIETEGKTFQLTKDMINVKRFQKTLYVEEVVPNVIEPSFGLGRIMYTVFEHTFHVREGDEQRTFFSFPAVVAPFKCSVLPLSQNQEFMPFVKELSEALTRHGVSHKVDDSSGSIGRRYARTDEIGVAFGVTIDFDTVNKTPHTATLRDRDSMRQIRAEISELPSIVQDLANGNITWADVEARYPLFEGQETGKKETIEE

[5] = target: SW480 colon carcinoma cells lysate proteins (Homo sapiens, UniProt P49327); conditions: PreyGene FASN
SW480 colon carcinoma cells lysate proteins (Homo sapiens, UniProt P49327), sequence (P49327 whole entry): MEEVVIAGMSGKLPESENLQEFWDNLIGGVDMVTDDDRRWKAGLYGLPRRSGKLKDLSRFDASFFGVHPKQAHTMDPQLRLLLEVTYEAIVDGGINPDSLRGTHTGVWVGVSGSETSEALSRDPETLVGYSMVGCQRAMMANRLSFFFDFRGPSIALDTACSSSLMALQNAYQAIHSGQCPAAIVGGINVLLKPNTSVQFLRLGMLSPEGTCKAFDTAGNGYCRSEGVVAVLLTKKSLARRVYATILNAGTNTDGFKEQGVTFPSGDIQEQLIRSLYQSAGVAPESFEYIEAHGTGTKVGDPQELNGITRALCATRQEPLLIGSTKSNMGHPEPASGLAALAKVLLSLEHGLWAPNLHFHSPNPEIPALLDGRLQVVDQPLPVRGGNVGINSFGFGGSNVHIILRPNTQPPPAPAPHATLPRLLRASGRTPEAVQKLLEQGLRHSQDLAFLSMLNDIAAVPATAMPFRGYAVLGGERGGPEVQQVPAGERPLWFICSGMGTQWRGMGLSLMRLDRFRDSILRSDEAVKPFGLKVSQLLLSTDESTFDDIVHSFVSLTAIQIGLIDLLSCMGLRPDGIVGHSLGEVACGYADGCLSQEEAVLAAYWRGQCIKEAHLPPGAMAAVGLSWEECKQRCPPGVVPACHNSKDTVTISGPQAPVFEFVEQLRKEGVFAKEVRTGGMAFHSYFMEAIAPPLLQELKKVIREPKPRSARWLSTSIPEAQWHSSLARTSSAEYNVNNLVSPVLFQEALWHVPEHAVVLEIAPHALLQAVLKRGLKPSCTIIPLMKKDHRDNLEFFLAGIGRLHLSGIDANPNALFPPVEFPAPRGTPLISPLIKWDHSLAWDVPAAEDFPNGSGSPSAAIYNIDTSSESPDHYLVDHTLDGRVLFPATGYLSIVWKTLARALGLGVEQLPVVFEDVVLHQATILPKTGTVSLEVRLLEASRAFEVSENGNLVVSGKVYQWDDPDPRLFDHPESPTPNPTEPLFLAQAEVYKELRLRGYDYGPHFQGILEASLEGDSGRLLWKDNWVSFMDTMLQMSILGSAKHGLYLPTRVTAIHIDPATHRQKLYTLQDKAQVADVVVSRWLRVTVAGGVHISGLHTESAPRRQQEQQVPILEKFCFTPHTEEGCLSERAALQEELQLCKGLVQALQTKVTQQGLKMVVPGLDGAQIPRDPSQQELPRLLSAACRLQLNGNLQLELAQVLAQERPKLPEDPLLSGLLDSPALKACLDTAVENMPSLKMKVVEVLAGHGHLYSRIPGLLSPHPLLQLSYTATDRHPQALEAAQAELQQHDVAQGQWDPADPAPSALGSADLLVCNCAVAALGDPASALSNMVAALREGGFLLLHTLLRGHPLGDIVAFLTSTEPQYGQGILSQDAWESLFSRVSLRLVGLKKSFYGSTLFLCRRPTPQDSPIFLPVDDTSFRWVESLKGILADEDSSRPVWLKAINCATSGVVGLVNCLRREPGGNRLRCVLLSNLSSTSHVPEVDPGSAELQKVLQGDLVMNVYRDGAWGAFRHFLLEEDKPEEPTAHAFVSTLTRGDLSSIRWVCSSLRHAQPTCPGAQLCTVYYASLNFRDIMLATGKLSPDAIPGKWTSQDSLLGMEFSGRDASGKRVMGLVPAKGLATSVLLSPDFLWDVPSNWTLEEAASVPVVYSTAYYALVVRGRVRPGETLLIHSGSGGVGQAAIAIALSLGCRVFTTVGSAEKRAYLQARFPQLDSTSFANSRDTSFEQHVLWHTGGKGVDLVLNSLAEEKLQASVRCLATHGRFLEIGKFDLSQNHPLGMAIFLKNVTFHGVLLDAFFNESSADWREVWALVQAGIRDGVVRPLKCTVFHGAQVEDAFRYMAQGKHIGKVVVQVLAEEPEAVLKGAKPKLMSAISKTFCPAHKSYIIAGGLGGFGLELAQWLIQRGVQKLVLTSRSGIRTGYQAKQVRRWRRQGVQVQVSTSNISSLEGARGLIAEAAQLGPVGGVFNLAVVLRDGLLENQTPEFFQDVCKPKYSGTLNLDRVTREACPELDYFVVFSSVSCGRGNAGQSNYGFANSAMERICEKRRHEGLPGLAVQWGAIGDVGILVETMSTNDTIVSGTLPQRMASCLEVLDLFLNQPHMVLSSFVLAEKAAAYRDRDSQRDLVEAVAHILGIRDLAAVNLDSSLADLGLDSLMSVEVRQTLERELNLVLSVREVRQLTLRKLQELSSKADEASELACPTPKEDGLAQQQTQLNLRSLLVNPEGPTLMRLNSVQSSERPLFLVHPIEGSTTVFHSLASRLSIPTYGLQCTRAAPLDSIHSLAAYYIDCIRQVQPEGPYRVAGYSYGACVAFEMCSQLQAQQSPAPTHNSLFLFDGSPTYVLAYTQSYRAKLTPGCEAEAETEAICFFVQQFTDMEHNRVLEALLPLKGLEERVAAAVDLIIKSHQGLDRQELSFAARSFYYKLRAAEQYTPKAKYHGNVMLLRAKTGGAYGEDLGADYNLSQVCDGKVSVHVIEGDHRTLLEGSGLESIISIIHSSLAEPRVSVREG

[6] = target: T3, SW480 colon carcinoma cells lysate proteins (Homo sapiens, UniProt P50454); conditions: PreyGene SERPINH1
T3 sequence (P50454 19-418): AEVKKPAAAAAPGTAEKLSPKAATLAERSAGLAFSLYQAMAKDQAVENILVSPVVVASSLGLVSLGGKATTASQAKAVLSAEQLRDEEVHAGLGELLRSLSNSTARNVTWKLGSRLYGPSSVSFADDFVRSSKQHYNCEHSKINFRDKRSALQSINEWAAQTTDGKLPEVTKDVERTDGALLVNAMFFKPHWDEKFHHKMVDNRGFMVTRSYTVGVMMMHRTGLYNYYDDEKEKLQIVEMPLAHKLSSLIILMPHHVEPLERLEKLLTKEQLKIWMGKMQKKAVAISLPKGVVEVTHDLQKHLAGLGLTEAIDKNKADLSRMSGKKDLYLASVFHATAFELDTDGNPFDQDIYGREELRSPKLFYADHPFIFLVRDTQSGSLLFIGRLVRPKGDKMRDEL

[7] = target: SW480 colon carcinoma cells lysate proteins (Homo sapiens, UniProt P55263); conditions: PreyGene ADK
SW480 colon carcinoma cells lysate proteins (Homo sapiens, UniProt P55263), sequence (P55263 whole entry): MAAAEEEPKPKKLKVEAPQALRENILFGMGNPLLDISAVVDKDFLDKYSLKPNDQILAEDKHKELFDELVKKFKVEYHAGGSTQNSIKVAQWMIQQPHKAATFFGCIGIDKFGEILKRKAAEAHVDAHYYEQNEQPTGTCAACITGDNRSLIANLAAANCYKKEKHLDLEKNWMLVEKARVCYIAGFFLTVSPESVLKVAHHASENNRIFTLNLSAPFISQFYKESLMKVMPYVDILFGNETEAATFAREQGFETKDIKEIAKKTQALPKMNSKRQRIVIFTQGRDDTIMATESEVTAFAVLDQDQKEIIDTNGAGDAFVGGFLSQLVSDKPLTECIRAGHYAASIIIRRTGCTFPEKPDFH

[8] = target: SW480 colon carcinoma cells lysate proteins (Homo sapiens, UniProt Q9UBR2); conditions: PreyGene CTSZ
SW480 colon carcinoma cells lysate proteins (Homo sapiens, UniProt Q9UBR2), sequence (Q9UBR2 62-303): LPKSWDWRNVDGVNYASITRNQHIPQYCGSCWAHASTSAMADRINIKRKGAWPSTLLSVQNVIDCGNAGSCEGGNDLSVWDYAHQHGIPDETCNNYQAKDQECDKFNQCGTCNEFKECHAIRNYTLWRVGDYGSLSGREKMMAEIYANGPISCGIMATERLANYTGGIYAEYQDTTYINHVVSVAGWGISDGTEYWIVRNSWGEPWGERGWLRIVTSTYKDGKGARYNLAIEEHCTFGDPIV

SW480 colon carcinoma cells lysate proteins (Homo sapiens, UniProt P17980), sequence (P17980 whole entry): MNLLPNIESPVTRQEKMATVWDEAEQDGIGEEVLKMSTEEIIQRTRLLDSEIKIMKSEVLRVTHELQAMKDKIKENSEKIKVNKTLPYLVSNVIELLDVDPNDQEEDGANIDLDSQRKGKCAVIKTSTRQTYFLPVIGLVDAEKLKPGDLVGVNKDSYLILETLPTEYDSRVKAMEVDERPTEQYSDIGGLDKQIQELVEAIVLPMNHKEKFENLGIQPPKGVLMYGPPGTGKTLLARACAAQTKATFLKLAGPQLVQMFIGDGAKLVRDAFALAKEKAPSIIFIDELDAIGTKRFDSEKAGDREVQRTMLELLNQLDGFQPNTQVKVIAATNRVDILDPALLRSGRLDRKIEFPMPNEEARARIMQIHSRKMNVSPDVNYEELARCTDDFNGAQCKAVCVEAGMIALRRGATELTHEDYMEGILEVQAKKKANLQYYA

SMILES: C[C@H](Oc1cc(-c2cnn(C3CCNCC3)c2)cnc1N)c1c(Cl)ccc(F)c1Cl [(5)-crizotinib]
- AvgP [1]: 0.4297
- SC.Exp. 1-1 [1]: 3
- SC.Exp. 1-2 [1]: 3
- SC.Exp. 2-1 [1]: 0
- SC.Exp. 2-2 [1]: 0
- Sum (SC.Exp.) [1]: 6
- AvgP [2]: 0.4614
- SC.Exp. 1-1 [2]: 5
- SC.Exp. 1-2 [2]: 4
- SC.Exp. 2-1 [2]: 0
- SC.Exp. 2-2 [2]: 0
- Sum (SC.Exp.) [2]: 9
- AvgP [3]: 0.1795
- SC.Exp. 1-1 [3]: 6
- SC.Exp. 1-2 [3]: 5
- SC.Exp. 2-1 [3]: 0
- SC.Exp. 2-2 [3]: 0
- Sum (SC.Exp.) [3]: 11
- AvgP [4]: 0.4818
- SC.Exp. 1-1 [4]: 6
- SC.Exp. 1-2 [4]: 7
- SC.Exp. 2-1 [4]: 0
- SC.Exp. 2-2 [4]: 0
- Sum (SC.Exp.) [4]: 13
- AvgP [5]: 0.394
- SC.Exp. 1-1 [5]: 8
- SC.Exp. 1-2 [5]: 8
- SC.Exp. 2-1 [5]: 0
- SC.Exp. 2-2 [5]: 0
- Sum (SC.Exp.) [5]: 16
- AvgP [6]: 0.3843
- SC.Exp. 1-1 [6]: 5
- SC.Exp. 1-2 [6]: 6
- SC.Exp. 2-1 [6]: 0
- SC.Exp. 2-2 [6]: 0
- Sum (SC.Exp.) [6]: 11
- AvgP [7]: 0.4613
- SC.Exp. 1-1 [7]: 4
- SC.Exp. 1-2 [7]: 3
- SC.Exp. 2-1 [7]: 0
- SC.Exp. 2-2 [7]: 0
- Sum (SC.Exp.) [7]: 7
- AvgP [8]: 0.3217
- SC.Exp. 1-1 [8]: 2
- SC.Exp. 1-2 [8]: 2
- SC.Exp. 2-1 [8]: 0
- SC.Exp. 2-2 [8]: 0
- Sum (SC.Exp.) [8]: 4
